According to PMC5484532 (Biochimie, 2017):

Molecular target: Leishmania donovani tyrosyl-tRNA synthetase (LdTyrRS) (Leishmania donovani, UniProt A0A3Q8ID88)
Assay: X-ray co-crystal structure at […] Å
Assay type: biochemical

Structure (SMILES): Nc1ncnc2c1ncn2[C@@H]1O[C@H](COS(=O)(=O)NC(=O)[C@@H](N)Cc2ccc(O)cc2)[C@@H](O)[C@H]1O [TyrSA, 5'-O-[N-(L-tyrosyl)sulfamoyl]adenosine]
- IC50: 0.69 nM
